{"source": "ChEMBL document CHEMBL5325501", "about": "“Discovery of BWA-522, a First-in-Class and Orally Bioavailable PROTAC Degrader of the Androgen Receptor Targeting N-Terminal Domain for the Treatment of Prostate Cancer” (J Med Chem, 2023)", "key": {"LNCaP [1]": {"system": "LNCaP", "assay": "Downregulation of FKBP51 protein level in human LNCaP cells incubated for 48 hrs by Western blot analysis", "format": "functional, cell-based", "settings": "dose 1-10 µM"}, "VCaP [2]": {"system": "VCaP", "assay": "Induction of apoptosis in human VCaP cells assessed as caspase-3 cleavage at 5 to 10 uM incubated for 48 hrs by Western blot analysis", "format": "functional, cell-based", "settings": "dose 5-10 µM"}, "LNCaP [3]": {"system": "LNCaP", "assay": "Antitumor activity against human LNCaP cells xenografted in NOD SCID mouse assessed as tumor growth inhibition at 60 mg/kg, po administered daily for 4 weeks relative to control", "format": "functional", "settings": "672 h, read-out: TGI"}, "[4]": {"assay": "Metabolic stability in mouse liver microsomes assessed as half-life at 2 uM preincubated for 10 mins in the presence of NADPH followed by compound addition and measured after 60 mins by LC-MS/MS analysis", "format": "ADME, Microsome"}, "VCaP [5]": {"system": "VCaP", "assay": "Downregulation of FKBP51 protein level in human VCaP cells incubated for 48 hrs by Western blot analysis", "format": "functional, cell-based", "settings": "dose 1-10 µM"}, "[6]": {"assay": "Metabolic stability in human liver microsomes assessed as intrinsic clearance at 2 uM preincubated for 10 mins in the presence of NADPH followed by compound addition and measured per mg protein after 60 mins by LC-MS/MS analysis", "format": "ADME, Microsome", "settings": "read-out: CLH"}, "[7]": {"assay": "AUC(0 to t) in beagle dog at 5 mg/kg, po measured by LC-MS/MS analysis", "format": "ADME, organism-based, Canis lupus familiaris", "design": "dose 5 mg/kg, route po", "settings": "in vivo"}, "[8]": {"assay": "Stability in human plasma assessed as parent compound remaining measured after 45 mins by LC-MS/MS analysis", "format": "ADME, cell-free", "settings": "read-out: Stability"}, "LNCaP [9]": {"system": "LNCaP", "assay": "Induction of apoptosis in human LNCaP cells assessed as PARP-1 cleavage at 5 to 10 uM incubated for 48 hrs by Western blot analysis", "format": "functional, cell-based", "settings": "dose 5-10 µM"}, "[10]": {"assay": "Half-life in ICR mouse at 2 mg/kg, iv measured by LC-MS/MS analysis", "format": "ADME, organism-based", "settings": "in vivo"}, "[11]": {"assay": "Stability in mouse plasma assessed as parent compound remaining measured immediately by LC-MS/MS analysis", "format": "ADME, cell-free", "settings": "read-out: Stability"}, "[12]": {"assay": "Stability in mouse plasma assessed as parent compound remaining measured after 30 mins by LC-MS/MS analysis", "format": "ADME, cell-free", "settings": "read-out: Stability"}, "[13]": {"assay": "Metabolic stability in mouse liver microsomes assessed as parent compound remaining at 2 uM preincubated for 10 mins followed by compound addition and measured after 60 mins by LC-MS/MS analysis", "format": "ADME, Microsome", "settings": "read-out: Stability"}, "PC-3": {"system": "PC-3", "assay": "Antiproliferative activity against AR-independent human PC-3 cells assessed as reduction in cell viability at 10 uM incubated for 6 days by CCK-8 assay", "format": "functional, cell-based", "settings": "time 6.0 day"}, "[14]": {"assay": "Stability in human plasma assessed as parent compound remaining measured after 60 mins by LC-MS/MS analysis", "format": "ADME, cell-free", "settings": "read-out: Stability"}, "[15]": {"assay": "AUC(0 to t) in ICR mouse at 2 mg/kg, iv measured by LC-MS/MS analysis", "format": "ADME, organism-based", "design": "dose 2 mg/kg, route iv", "settings": "in vivo"}, "[16]": {"assay": "AUC(0 to t) in beagle dog at 1 mg/kg, iv measured by LC-MS/MS analysis", "format": "ADME, organism-based, Canis lupus familiaris", "design": "dose 1 mg/kg, route iv", "settings": "in vivo"}, "[17]": {"assay": "Stability in human plasma assessed as parent compound remaining measured after 120 mins by LC-MS/MS analysis", "format": "ADME, cell-free", "settings": "read-out: Stability"}, "[18]": {"assay": "Stability in mouse plasma assessed as parent compound remaining measured after 120 mins by LC-MS/MS analysis", "format": "ADME, cell-free", "settings": "read-out: Stability"}, "[19]": {"assay": "Downregulation of PSA protein level in human VCaP cells at 10 uM incubated for 48 hrs by Western blot analysis relative to control", "format": "functional"}, "[20]": {"assay": "Downregulation of PSA protein level in human LNCaP cells at 10 uM incubated for 48 hrs by Western blot analysis relative to control", "format": "functional"}, "[21]": {"assay": "Downregulation of TMPRSS2 protein level in human LNCaP cells at 10 uM incubated for 48 hrs by Western blot analysis relative to control", "format": "functional"}, "[22]": {"assay": "Tmax in ICR mouse at 10 mg/kg, po measured by LC-MS/MS analysis", "format": "ADME, organism-based", "settings": "in vivo"}, "CWR22R": {"system": "CWR22R", "assay": "Antiproliferative activity against enzalutamide-resistant human 22Rv1 cells assessed as reduction in cell viability incubated for 6 days by CCK-8 assay", "format": "functional, cell-based", "settings": "22Rv1, 144 h"}, "[23]": {"assay": "Cmax in ICR mouse at 2 mg/kg, iv measured by LC-MS/MS analysis", "format": "ADME, organism-based", "design": "dose 2 mg/kg, route iv", "settings": "in vivo"}, "[24]": {"assay": "Toxicity in ICR mouse assessed as heart damage at 20 to 60 mg/kg, po administered daily for 14 days", "format": "organism-based", "settings": "in vivo, 336 h, dose 20-60 mg/kg, time 14 day"}, "LNCaP [25]": {"system": "LNCaP", "assay": "Downregulation of TMPRSS2 protein level in human LNCaP cells incubated for 48 hrs by Western blot analysis", "format": "functional, cell-based", "settings": "dose 1-10 µM"}, "[26]": {"assay": "Stability in mouse plasma assessed as parent compound remaining measured after 60 mins by LC-MS/MS analysis", "format": "ADME, cell-free", "settings": "read-out: Stability"}, "[27]": {"assay": "Metabolic stability in human liver microsomes assessed as parent compound remaining at 2 uM preincubated for 10 mins followed by compound addition and measured after 60 mins by LC-MS/MS analysis", "format": "ADME, Microsome", "settings": "read-out: Stability"}, "[28]": {"assay": "Toxicity in ICR mouse assessed as spleen damage at 20 to 60 mg/kg, po administered daily for 14 days", "format": "organism-based", "settings": "in vivo, 336 h, dose 20-60 mg/kg, time 14 day"}, "[29]": {"assay": "Toxicity in ICR mouse assessed as liver damage at 20 to 60 mg/kg, po administered daily for 14 days", "format": "organism-based", "settings": "in vivo, 336 h, dose 20-60 mg/kg, time 14 day"}, "[30]": {"assay": "Metabolic stability in mouse liver microsomes assessed as intrinsic clearance at 2 uM preincubated for 10 mins in the presence of NADPH followed by compound addition and measured per mg protein after 60 mins by LC-MS/MS analysis", "format": "ADME, Microsome", "settings": "read-out: CLH"}, "[31]": {"assay": "AUC(0 to t) in ICR mouse at 10 mg/kg, po measured by LC-MS/MS analysis", "format": "ADME, organism-based", "design": "dose 10 mg/kg, route po", "settings": "in vivo"}, "VCaP [32]": {"system": "VCaP", "assay": "Downregulation of PSA protein level in human VCaP cells incubated for 48 hrs by Western blot analysis", "format": "functional, cell-based", "settings": "dose 1-10 µM"}, "VCaP [33]": {"system": "VCaP", "assay": "Induction of apoptosis in human VCaP cells assessed as PARP-1 cleavage at 5 to 10 uM incubated for 48 hrs by Western blot analysis", "format": "functional, cell-based", "settings": "dose 5-10 µM"}}, "note": "Activity calls are given as the source filed them. The calls are words filed in the database; no cut-off is given here.", "data": [{"molecule": "CC(C)(c1ccc(OCC2CCN(CC3CCN(c4ccc5c(c4)C(=O)N(C4CCC(=O)NC4=O)C5=O)CC3)CC2)cc1)c1ccc(OC[C@H](O)CCl)cc1", "note": "(stereo not given in full)", "values": [{"measurement": "Activity", "setting": "LNCaP [1]", "value": "Dose-Dependent Effect"}, {"measurement": "Activity", "setting": "VCaP [2]", "value": "Active"}, {"measurement": "inhibition in vivo at 60 mg/kg", "setting": "LNCaP [3]", "value": 76, "unit": "%"}, {"measurement": "half-life at 2 µM", "setting": "[4]", "value": 3.12, "unit": "h"}, {"measurement": "Activity", "setting": "VCaP [5]", "value": "Dose-Dependent Effect"}, {"measurement": "microsomal CLint at 2 µM", "setting": "[6]", "value": 7.4, "unit": "µL/min/mg"}, {"measurement": "AUCt", "setting": "[7]", "value": 1411, "unit": "ng·h/mL"}, {"measurement": "remaining at 0.75 h", "setting": "[8]", "value": 93.9, "unit": "%"}, {"measurement": "Activity", "setting": "LNCaP [9]", "value": "Active"}, {"measurement": "half-life", "setting": "[10]", "value": 8.2, "unit": "h"}, {"measurement": "remaining at 0 min", "setting": "[11]", "value": 100, "unit": "%"}, {"measurement": "remaining at 0.5 h", "setting": "[12]", "value": 90.3, "unit": "%"}, {"measurement": "remaining at 1 h, 2 µM", "setting": "[13]", "value": 99.5, "unit": "%"}, {"measurement": "Activity", "setting": "PC-3", "value": "inactive"}, {"measurement": "remaining at 1 h", "setting": "[14]", "value": 91.9, "unit": "%"}, {"measurement": "AUC(0-t)", "setting": "[15]", "value": 3020, "unit": "ng·h/mL"}, {"measurement": "AUCt", "setting": "[16]", "value": 919, "unit": "ng·h/mL"}, {"measurement": "remaining at 2 h", "setting": "[17]", "value": 87.3, "unit": "%"}, {"measurement": "remaining at 2 h", "setting": "[18]", "value": 91.2, "unit": "%"}, {"measurement": "Activity", "setting": "[19]", "value": ">80", "unit": "%"}, {"measurement": "Activity", "setting": "[20]", "value": "~15", "unit": "%"}, {"measurement": "Activity", "setting": "[21]", "value": "~45", "unit": "%"}, {"measurement": "Tmax", "setting": "[22]", "value": 4.7, "unit": "h"}, {"measurement": "IC50", "setting": "CWR22R", "value": 4.08, "unit": "µM"}, {"measurement": "Cmax", "setting": "[23]", "value": 782, "unit": "ng/mL"}, {"measurement": "Activity", "setting": "[24]", "value": "Non-Toxic"}, {"measurement": "Activity", "setting": "LNCaP [25]", "value": "Dose-Dependent Effect"}, {"measurement": "remaining at 1 h", "setting": "[26]", "value": 90.8, "unit": "%"}, {"measurement": "remaining at 1 h, 2 µM", "setting": "[27]", "value": 94, "unit": "%"}, {"measurement": "Activity", "setting": "[28]", "value": "Non-Toxic"}, {"measurement": "Activity", "setting": "[29]", "value": "Non-Toxic"}, {"measurement": "microsomal CLint at 2 µM", "setting": "[30]", "value": 7.4, "unit": "µL/min/mg"}, {"measurement": "AUC(0-t)", "setting": "[31]", "value": 5950, "unit": "ng·h/mL"}, {"measurement": "Activity", "setting": "VCaP [32]", "value": "Dose-Dependent Effect"}, {"measurement": "Activity", "setting": "VCaP [33]", "value": "Active"}]}]}
